The text below walks through data of US11339130B1 (Blade Therapeutics, Inc., priority 2016, dated 2022).

What all share (type): biochemical
One assay has as its target T1, Human Calpain 1/NS1 (Homo sapiens, UniProt P07384).
T1 sequence (P07384 1-714): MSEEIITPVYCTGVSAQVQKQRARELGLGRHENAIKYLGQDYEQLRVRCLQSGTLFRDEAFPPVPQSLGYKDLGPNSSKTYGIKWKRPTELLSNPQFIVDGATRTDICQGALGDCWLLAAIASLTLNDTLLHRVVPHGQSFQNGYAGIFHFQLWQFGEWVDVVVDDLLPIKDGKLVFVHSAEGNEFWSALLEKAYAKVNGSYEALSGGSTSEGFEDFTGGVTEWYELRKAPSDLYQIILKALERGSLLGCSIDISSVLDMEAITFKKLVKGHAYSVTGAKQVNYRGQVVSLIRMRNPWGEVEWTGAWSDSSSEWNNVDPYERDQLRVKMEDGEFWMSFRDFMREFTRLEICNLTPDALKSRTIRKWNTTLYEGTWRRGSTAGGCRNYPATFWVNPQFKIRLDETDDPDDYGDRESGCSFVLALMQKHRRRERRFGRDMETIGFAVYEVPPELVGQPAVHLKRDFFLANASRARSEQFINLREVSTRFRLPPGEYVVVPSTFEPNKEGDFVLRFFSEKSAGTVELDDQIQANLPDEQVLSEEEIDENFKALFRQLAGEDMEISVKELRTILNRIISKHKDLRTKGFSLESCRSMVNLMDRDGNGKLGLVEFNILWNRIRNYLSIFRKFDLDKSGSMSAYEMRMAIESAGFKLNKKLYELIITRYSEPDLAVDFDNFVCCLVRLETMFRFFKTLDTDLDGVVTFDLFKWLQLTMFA
T1 sequence (P04632 1-268 partner): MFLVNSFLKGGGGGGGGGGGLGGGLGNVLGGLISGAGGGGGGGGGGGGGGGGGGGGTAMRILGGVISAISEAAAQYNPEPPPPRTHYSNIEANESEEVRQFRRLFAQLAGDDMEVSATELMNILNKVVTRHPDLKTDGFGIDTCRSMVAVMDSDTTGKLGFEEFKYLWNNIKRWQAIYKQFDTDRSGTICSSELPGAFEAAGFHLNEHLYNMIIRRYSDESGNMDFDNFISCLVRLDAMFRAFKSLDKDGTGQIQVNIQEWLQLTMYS
Description: Calpain inhibition continuous fluorescence (FRET) assay, Human Calpain 1/NS1. Conditions: read-out: Human Calpain 1/NS1 IC50. The gist of the method:
(§1)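 Inhibitors were preincubated with calpain in 50 mM Tris pH 7.5, 100 mM NaCl, 1 mM DTT at 25C. Reactions were started with 5-FAM/QXL 520 FRET peptide substrate plus CaCl2 and read at 490/520 nm for 10 min. IC50s came from 4-parameter fits of slope rates (1-5 min).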

The target of a further assay is T2, Human Calpain 9/NS1 (Homo sapiens, UniProt O14815).
T2 sequence (O14815 1-690): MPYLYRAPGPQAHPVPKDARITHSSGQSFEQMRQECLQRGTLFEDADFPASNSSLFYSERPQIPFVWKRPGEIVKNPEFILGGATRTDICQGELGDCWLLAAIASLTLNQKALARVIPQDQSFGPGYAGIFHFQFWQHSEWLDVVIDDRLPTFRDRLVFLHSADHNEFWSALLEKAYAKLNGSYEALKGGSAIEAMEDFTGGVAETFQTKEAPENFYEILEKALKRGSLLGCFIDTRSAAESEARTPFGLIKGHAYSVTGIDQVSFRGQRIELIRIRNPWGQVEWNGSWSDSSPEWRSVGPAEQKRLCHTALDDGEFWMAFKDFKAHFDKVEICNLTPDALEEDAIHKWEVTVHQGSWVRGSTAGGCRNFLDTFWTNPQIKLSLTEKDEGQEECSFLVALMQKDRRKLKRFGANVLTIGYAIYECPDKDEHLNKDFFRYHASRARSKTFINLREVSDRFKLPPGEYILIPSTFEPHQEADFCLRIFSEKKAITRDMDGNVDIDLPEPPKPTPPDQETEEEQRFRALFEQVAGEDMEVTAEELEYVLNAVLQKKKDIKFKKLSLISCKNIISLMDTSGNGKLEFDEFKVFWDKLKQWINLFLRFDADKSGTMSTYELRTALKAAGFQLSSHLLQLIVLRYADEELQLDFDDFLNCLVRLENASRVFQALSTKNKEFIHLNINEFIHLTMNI
T2 sequence (P04632 1-268 partner): T1 sequence (P04632 1-268 partner)
Description: Calpain inhibition continuous fluorescence (FRET) assay, Human Calpain 9/NS1. Conditions: read-out: Human Calpain 9/NS1 IC50. The gist of the method:
as §1

For a further assay, the target named is T3, Human Calpain 2/NS1 (Homo sapiens, UniProt P17655).
T3 sequence (P17655 1-700): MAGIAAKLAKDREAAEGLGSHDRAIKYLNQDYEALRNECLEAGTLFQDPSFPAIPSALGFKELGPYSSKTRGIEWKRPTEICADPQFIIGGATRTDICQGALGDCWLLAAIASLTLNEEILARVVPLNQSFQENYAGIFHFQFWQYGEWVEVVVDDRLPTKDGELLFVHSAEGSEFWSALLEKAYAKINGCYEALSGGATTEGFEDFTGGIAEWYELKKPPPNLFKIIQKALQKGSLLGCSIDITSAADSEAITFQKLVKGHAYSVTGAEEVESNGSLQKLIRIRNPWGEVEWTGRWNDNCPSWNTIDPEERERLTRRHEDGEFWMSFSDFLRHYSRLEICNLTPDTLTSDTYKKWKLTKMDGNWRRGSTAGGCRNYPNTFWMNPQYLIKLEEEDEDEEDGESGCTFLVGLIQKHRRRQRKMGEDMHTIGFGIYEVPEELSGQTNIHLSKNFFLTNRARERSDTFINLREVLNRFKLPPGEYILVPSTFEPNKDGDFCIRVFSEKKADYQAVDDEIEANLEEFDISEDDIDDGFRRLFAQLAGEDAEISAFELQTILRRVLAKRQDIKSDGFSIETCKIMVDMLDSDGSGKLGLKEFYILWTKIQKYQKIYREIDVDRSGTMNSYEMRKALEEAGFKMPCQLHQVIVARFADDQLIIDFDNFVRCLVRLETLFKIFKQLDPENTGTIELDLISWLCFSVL
T3 sequence (P04632 1-268 partner): T1 sequence (P04632 1-268 partner)
Description: Calpain inhibition continuous fluorescence (FRET) assay, Human Calpain 2/NS1. The settings on record: read-out: Human Calpain 2/NS1 IC50. Summed up: as §1

Where two headings read alike, the source gives them in different places.

On to `Cc1noc(-c2ccccc2)c1C(=O)N[C@@H](Cc1ccccc1)C(=O)C(=O)NCc1cccnc1` [Compound 224, (S)—N-(3,4-dioxo-1-phenyl-4-((pyridin-3-ylmethyl)amino)butan-2-yl)-3-methyl-5-phenylisoxazole-4-carboxamide], for which the results for the IC50 at Human Calpain 1/NS1 (Column A), at Human Calpain 9/NS1 (Column C) and at Human Calpain 2/NS1 (Column B) were less than 3 µM, 3 to 10 µM and 3 to 10 µM, respectively.
Take `O=C(NC1CC1)C(=O)[C@H](Cc1ccccc1)NC(=O)c1scnc1-n1ncc2ccccc21` [Compound 86, (S)—N-(4-(cyclopropylamino)-3,4-dioxo-1-phenylbutan-2-yl)-4-(1H-indazol-1-yl)thiazole-5-carboxamide]: the IC50 on Human Calpain 1/NS1 (Column A), on Human Calpain 9/NS1 (Column C) and on Human Calpain 2/NS1 (Column B) was less than 3 µM in each case.
For `Cc1nsc(-c2ccccc2)c1C(=O)N[C@@H](Cc1ccccc1)C(=O)C(N)=O` [Compound 96, (S)—N-(4-amino-3,4-dioxo-1-phenylbutan-2-yl)-3-methyl-5-phenylisothiazole-4-carboxamide], the IC50 on Human Calpain 1/NS1 (Column A), at Human Calpain 9/NS1 (Column C) and at Human Calpain 2/NS1 (Column B) was less than 3 µM throughout.
Consider `Cc1cc(C(F)(F)F)cc(-n2nc(C)cc2C(=O)N[C@@H](Cc2ccccc2)C(=O)C(=O)NC2CC2)n1` [Compound 206, (S)—N-(4-(cyclopropylamino)-3,4-dioxo-1-phenylbutan-2-yl)-3-methyl-1-(6-methyl-4-(trifluoromethyl)pyridin-2-yl)-1H-pyrazole-5-carboxamide], for which the IC50 at Human Calpain 1/NS1 (Column A) was less than 3 µM; at Human Calpain 9/NS1 (Column C), more than 10 µM; at Human Calpain 2/NS1 (Column B), more than 10 µM.
For the compound `Cc1nc(-c2ccccc2)c(C(=O)N[C@@H](CC(C)(C)C)C(=O)C(N)=O)o1` [Compound 391, (S)—N-(1-amino-5,5-dimethyl-1,2-dioxohexan-3-yl)-2-methyl-4-phenyloxazole-5-carboxamide], the IC50 at Human Calpain 1/NS1, on Human Calpain 9/NS1 and at Human Calpain 2/NS1 was less than 3 µM throughout.
Take `Cc1cc(C(=O)N[C@@H](Cc2ccccc2)C(=O)C(=O)NC2CC2)n(-c2cccnc2)n1` [Compound 132, (S)—N-(4-(cyclopropylamino)-3,4-dioxo-1-phenylbutan-2-yl)-3-methyl-1-(pyridin-3-yl)-1H-pyrazole-5-carboxamide]: the IC50 on Human Calpain 1/NS1 (Column A), on Human Calpain 9/NS1 (Column C) and at Human Calpain 2/NS1 (Column B) was less than 3 µM each time.
Turning to `CC(C)c1cc(C(=O)N[C@@H](Cc2ccccc2)C(=O)C(N)=O)n(-c2ccccc2)n1` [Compound 117, (S)—N-(4-amino-3,4-dioxo-1-phenylbutan-2-yl)-3-isopropyl-1-phenyl-1H-pyrazole-5-carboxamide], the IC50 on Human Calpain 1/NS1 (Column A), on Human Calpain 9/NS1 (Column C) and on Human Calpain 2/NS1 (Column B) was 3 to 10 µM in each case.
On to `NC(=O)C(=O)[C@H](Cc1ccccc1)NC(=O)c1ccnn1-c1ccccc1` [Compound 10, (S)—N-(4-amino-3,4-dioxo-1-phenylbutan-2-yl)-1-phenyl-1H-pyrazole-5-carboxamide], for which the IC50 on Human Calpain 1/NS1 (Column A), at Human Calpain 9/NS1 (Column C) and at Human Calpain 2/NS1 (Column B) was less than 3 µM each time.
As to `O=C(NC1CC1)C(=O)[C@H](Cc1ccccc1)NC(=O)c1scnc1-n1cc2ccccc2n1` [Compound 64, (S)—N-(4-(cyclopropylamino)-3,4-dioxo-1-phenylbutan-2-yl)-4-(2H-indazol-2-yl)thiazole-5-carboxamide], the IC50 at Human Calpain 1/NS1 (Column A), on Human Calpain 9/NS1 (Column C) and at Human Calpain 2/NS1 (Column B) was less than 3 µM throughout.
`Cc1cc(C(=O)N[C@@H](Cc2ccccc2)C(=O)C(=O)NC2CC2)n(-c2ncccc2C)n1` [Compound 67, (S)—N-(4-(cyclopropylamino)-3,4-dioxo-1-phenylbutan-2-yl)-3-methyl-1-(3-methylpyridin-2-yl)-1H-pyrazole-5-carboxamide]: the IC50 on Human Calpain 1/NS1 (Column A), on Human Calpain 9/NS1 (Column C) and at Human Calpain 2/NS1 (Column B) was more than 10 µM each time.
As to `O=C(NC1CC1)C(=O)[C@H](Cc1ccccc1)NC(=O)c1scnc1-n1cc(-c2ccccc2)cn1` [Compound 87, (S)—N-(4-(cyclopropylamino)-3,4-dioxo-1-phenylbutan-2-yl)-4-(4-phenyl-1H-pyrazol-1-yl)thiazole-5-carboxamide], the IC50 at Human Calpain 1/NS1 (Column A) was more than 10 µM; at Human Calpain 9/NS1 (Column C), less than 3 µM; at Human Calpain 2/NS1 (Column B) it was less than 3 µM.
In the case of `Cc1noc(-n2cc3ccccc3n2)c1C(=O)N[C@@H](Cc1ccccc1)C(=O)C(N)=O` [Compound 139, (S)—N-(4-amino-3,4-dioxo-1-phenylbutan-2-yl)-5-(2H-indazol-2-yl)-3-methylisoxazole-4-carboxamide], the IC50 on Human Calpain 1/NS1 (Column A), on Human Calpain 9/NS1 (Column C) and at Human Calpain 2/NS1 (Column B) was less than 3 µM throughout.
As for `NC(=O)C(=O)[C@H](Cc1ccccc1)NC(=O)c1cncn1-c1ccn(-c2ccccc2)n1` [Compound 68, (S)—N-(4-amino-3,4-dioxo-1-phenylbutan-2-yl)-1-(1-phenyl-1H-pyrazol-3-yl)-1H-imidazole-5-carboxamide], the IC50 on Human Calpain 1/NS1 (Column A), at Human Calpain 9/NS1 (Column C) and on Human Calpain 2/NS1 (Column B) was less than 3 µM each time.
As for `Cc1cc(C(=O)N[C@@H](Cc2ccccc2)C(=O)C(N)=O)n(-c2ncccc2C)n1` [Compound 66, (S)—N-(4-amino-3,4-dioxo-1-phenylbutan-2-yl)-3-methyl-1-(3-methylpyridin-2-yl)-1H-pyrazole-5-carboxamide], the IC50 was 3 to 10 µM at Human Calpain 1/NS1 (Column A), less than 3 µM on Human Calpain 9/NS1 (Column C) and less than 3 µM at Human Calpain 2/NS1 (Column B).
On to `NC(=O)C(=O)C(Cc1ccccc1)NC(=O)c1ccnn1Cc1ccccc1` (stereo not drawn) [Compound 283, N-(4-amino-3,4-dioxo-1-phenylbutan-2-yl)-1-benzyl-1H-pyrazole-5-carboxamide], for which the IC50 on Human Calpain 1/NS1 (Column A), on Human Calpain 9/NS1 (Column C) and at Human Calpain 2/NS1 (Column B) was less than 3 µM each time.
For `Cc1cc(C(=O)N[C@@H](Cc2ccccc2)C(=O)C(N)=O)n(-c2ccncc2)n1` [Compound 209, (S)—N-(4-amino-3,4-dioxo-1-phenylbutan-2-yl)-3-methyl-1-(pyridin-4-yl)-1H-pyrazole-5-carboxamide], the IC50 at Human Calpain 1/NS1 (Column A), at Human Calpain 9/NS1 (Column C) and at Human Calpain 2/NS1 (Column B) was less than 3 µM each time.
